Source: US12685313B2, “Agricultural composition comprising kasugamycin” (UPL Corporation Limited, priority 2021, dated 2026)

Legend:
Alternaria alternata = assay: In vitro control of Alternaria alternata on PDA medium; type: cell-based; details: Alternaria alternata from potato, dose 1 L/400 L water, 28-30° C., dark, 7 days
Procedure: A strain of Alternaria alternata isolated from potato was cultivated in a solid potato dextrose agar (PDA) medium. The efficacy of the mixture of kasugamycin and laminarin in a 1:1 ratio, and each component individually was tested.
(§1) The in vitro assessment of the products effectiveness was carried out as per the treatments discussed in Table 4. Accordingly, the components in each treatment were dissolved in PDA culture medium at the dose indicated above. The mixture was homogenized and poured into sterile petri dishes. Explants of 5 mm diameter of Alternaria alternata were placed on the petri dishes with PDA. The dishes were incubated inverted in dark conditions at a temperature of 28-30° C. The evaluation of the inhibition of the fungus was carried out 7 days later.
The present inventors have calculated the Colby value of the synergistic combination as discussed in Example 4 above.

Fusarium oxysporum = assay: In vitro control of Fusarium oxysporum on PDA medium; type: cell-based; details: Fusarium oxysporum from potato, dose 1 L/400 L water, 28-30° C., dark, 7 days
Procedure: A strain of Fusarium oxysporum isolated from potato was cultivated in a solid potato dextrose agar (PDA) medium. The efficacy of the mixture of kasugamycin and laminarin in a 1:1 ratio, and each component individually was tested.
as §1, with “in Table 2. Accordingly, the” for “in Table 4. Accordingly, the”, “dissolved in the PDA culture” for “dissolved in PDA culture”, “diameter of the fungus strain Fusarium oxysporum were placed” for “diameter of Alternaria alternata were placed”, “were incubated inverted, in dark” for “were incubated inverted in dark”
This effectiveness of all treatments as measured by percent reduction in the Fusarium oxysporum growth, was also evaluated according to Colby's equation as below. […]
If the actual/observed anti-phytopathogenic efficacy of the kasugamycin and laminarin combination against Fusarium oxysporum exceeds the calculated value, then the activity of the combination is super additive, i.e. a synergistic effect exists. In this case, the efficacy which was actually observed must be greater than the value for the expected efficacy (E) calculated from the abovementioned formula.

Row | Compound | % Observed control (Alternaria alternata) | % Observed control (Fusarium oxysporum)
1 | C[C@H]1O[C@H](O[C@H]2[C@H](O)[C@@H](O)[C@@H](O)[C@H](O)[C@@H]2O)[C@@H](N)C[C@@H]1NC(=N)C(=O)O [Kasugamycin] | 54% | 48%
2 | Laminarin | 30% | 11%
